Measurements from patent US20260327628A1, “AN RNA APTAMER THAT BINDS TO ASP7967 OR AN ANALOGUE THEREOF” (priority 2022, published 2026).
Where “and” joins values, the source holds several entries; their conditions need not be identical. Equal entries are not always repeated. Entries after “also recorded” stand apart in the source; their conditions may differ. Where two headings read alike, the source gives them in different places. One block for each molecule: values may come before it.

Assays:
AC17-4 RNA aptamer = assay: Affinity measurement by ITC, AC17-4; type: binding; settings: 37 °C
Description: ITC experiments were carried out as described previously^26 with some modifications. Template DNA for in vitro transcription was prepared by primer extension using Q5 High-Fidelity DNA Polymerase. AC17-4 RNA aptamer (5′-[…]-3′ (SEQ ID NO: 50)) was prepared using HiScribe T7 High Yield RNA Synthesis Kit (NEB) according to the manufacturer's instructions. The transcription product (100 μl) was treated with 2 U TURBO DNase at 37° C. for 30 min. The RNA was precipitated with ammonium acetate and ethanol and dissolved in water. The solution was further extracted with phenol-chloroform and ethanol precipitated. The RNA was purified by denaturing polyacrylamide gel electrophoresis (PAGE) and the main band was extracted from the gel with TE buffer (10 mM Tris-HCl, pH 7.0, 0.1 mM EDTA). […] RNA concentration was determined by absorbance at 260 nm according to OligoCalc. […]
Titration was performed at 37° C. using MicroCal PEAQ-ITC (Malvern). […] Raw data were analysed by MicroCal PEAQ-ITC analysis software ver. […]
Conventional SELEX requires immobilization of the target molecule on solid phase on which an RNA pool containing randomized sequences are applied. […] The sequences enriched during the SELEX experiment were analyzed by high-throughput (Illumina) sequencing. […]

[1] = in vivo; cited from earlier work
hEPO expression in mice = assay: In vivo hEPO assay in mice injected with AAV8 vectors; design: species or system BALB/c cAJc1 mice
Description: For AAV production, 293T cells seeded in cellstack5 (Corning) were cotransfected using PEI MAX (Polysciences Inc) with 227.9 μg of the plasmid encoding AAV8 replication and capsid proteins, 455.8 μg of the plasmid encoding helper proteins and 227.9 μg of the pAAV-CMV-hEPO-a8c or -control. At 6 days after transfection, cells and supernatants were harvested, then filtered and concentrated by KrosFlo Research Ili (Spectrum Labs, Inc) for AAV purification by affinity chromatography using AKTA avant 25 (GE healthcare). Then, the virus solutions were ultracentrifuged and dialyzed. Titers of the AAV solutions were determined by quantitative PCR using the AAVpro Titration Kit (for Real-Time PCR) Ver.2 (Takara).
For in vivo animal experiments, 7-week-old male BALB/c cAJc1 mice (CLEA Japan Inc.) were intravenously injected with 200 μl of PBS (as the control group) or purified AAV8 particles (3.0×10^10 virus genome (vg) per mouse) carrying hEPO gene with or without the CPP-a8c-AC17-4 riboswitch. After 13 days from AAV injection, mice were subjected to 24 μl blood collection from tail vein and the blood samples were immediately diluted with 96 μl. At 24 h after the blood collection, the mice were orally administrated 100 mg kg^−1 of ASP7967 in 0.5% methyl cellulose (FUJIFILM Wako Pure Chemical Corp) or 0.5% methyl cellulose as the vehicle solution. At 2, 4, 6, 8 and 24 h after the ASP7967 administration, blood samples were collected as described above. The blood samples were incubated on ice, then centrifuged at 1,200×g for 15 min at 4° C. to collect serum samples. The serum samples were stored at −80° C. and used for measurement of serum hEPO concentration by ELISA.
Next, we studied the riboswitch potency and functionality in vivo. […] Mice were intravenously injected with viral vectors AAV8-CMV-hEPO-control, AAV8-CMV-hEPO-a8c-AC17-4-CPP, or saline (WT). Two weeks after AAV injection, 100 mg kg^−1 dose of ASP7967 was orally administered to induce expression from the riboswitch-regulated vector. Blood was drawn before and at multiple time points after the oral administration (FIG. 9c). Secreted hEPO levels in the serum of the mice injected with the control AAV (AAV8-CMV-hEPO-control) were around 550 mIU ml^−1, and administration of 100 mg kg^−1 dose of the ligand had no effect during the observed time period (FIG. 9d, upper right). On the other hand, upon administration of 100 mg kg^−1 dose of the ligand, hEPO secretion levels were induced by riboswitch-regulated vector (AAV8-CMV-hEPO-a8c-AC17-4-CPP) reaching approximately 115 mIU mL-1 at 6-8 h postdosing, corresponding to a 7.2-fold increase over the mice dosed with the vehicle (FIG. 9d, lower left).

[2] = Pharmacokinetics of ASP7967 in mice after oral administration (LC-MS/MS); type: in vivo, mice (BALB/c cAJc1); settings: for Tmax: first sampling time point
Description: FIG. 10 Pharmacokinetics of ASP7967 in mice after oral administration. After oral administration at 100 mg kg^−1 to mice (BALB/c cAJc1), plasma and liver concentrations of ASP7967 were measured using liquid chromatography-tandem mass spectrometry (LC-MS/MS). ASP7967 concentrations in both plasma and liver reached maxima within the first sampling time point of 1 h and then decreased over time.

- Kd (AC17-4 RNA aptamer): 48 nM
Structure (SMILES): Fc1ccc(Nc2nc(NCc3ncccn3)nc(Nc3ccccc3)n2)cc1 [ASP2905, reference compound]
- antipsychotic activities [1]: has antipsychotic activities

Structure (SMILES): Fc1ccc(Nc2nc(NCc3ncccn3)nc(Nc3ccc(F)cc3)n2)cc1 [ASP7967]
- hEPO secretion level (serum) (hEPO expression in mice; 100 mg kg^−1 oral, 6-8 h postdosing, AAV8-CMV-hEPO-a8c-AC17-4-CPP): approximately 115 mIU mL-1
- increase of serum hEPO over vehicle (hEPO expression in mice; 100 mg kg^−1 oral, AAV8-CMV-hEPO-a8c-AC17-4-CPP): 7.2 fold and ~ 7.2 fold
- effect of ligand on serum hEPO in mice injected with control AAV (hEPO expression in mice; 100 mg kg^−1 oral, AAV8-CMV-hEPO-control): no effect
- serum hEPO / transgene expression as ligand concentration declines (hEPO expression in mice; 100 mg kg^−1 oral, after 6-8 h): subsequently decreased; also recorded: diminished as the ligand concentration in the target tissue declined
- hEPO after readministration of the ligand (hEPO expression in mice; readministration, data not shown): reactivation of hEPO
- Tmax ([2]; mouse, liver, 100 mg kg^−1 oral, read-out: time of maximum liver concentration): ≤ 1 h
- Kp ([2]; mouse, liver, 100 mg kg^−1 oral, read-out: concentration ratio of liver to plasma): 2.7 to 30.6
- Tmax ([2]; mouse, plasma, 100 mg kg^−1 oral, read-out: time of maximum plasma concentration): ≤ 1 h
- concentration in the liver / distribution (in words) ([2]; oral administration): high concentration; also recorded: distributed to the liver
